# Data as given in the supplement of paper PMC10307832.
# Tests used:
# Assay in all cases: relative viability (nuclei count vs DMSO), 5 days (fraction); higher = more cells survive
# R406 + Bortezomib = compound: COc1cc(Nc2ncc(F)c(Nc3ccc4c(n3)NC(=O)C(C)(C)O4)n2)cc(OC)c1OC [R406] + CC(C)C[C@H](NC(=O)[C@H](Cc1ccccc1)NC(=O)c1cnccn1)B(O)O [Bortezomib] (partner 0.002 µM)
# Method in brief: (§1)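 Relative viability is defined as nuclei in treated wells over nuclei in vehicle wells. Duplicate plates were run and medians reported. Lung cancer cell lines in 1536-well plates were dosed by pin tool one day after seeding, with one drug or with a fixed anchor-drug dose plus five library-drug doses (not always all listed) in √10 steps, and nuclei were counted after 5 days.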
# Daporinad + Palbociclib = compound: O=C(/C=C/c1cccnc1)NCCCCC1CCN(C(=O)c2ccccc2)CC1 [Daporinad] + CC(=O)c1c(C)c2cnc(Nc3ccc(N4CCNCC4)cn3)nc2n(C2CCCC2)c1=O [Palbociclib] (partner 0.5 µM)
# Method in brief: as §1
# R406 + Linsitinib = compound: COc1cc(Nc2ncc(F)c(Nc3ccc4c(n3)NC(=O)C(C)(C)O4)n2)cc(OC)c1OC [R406] + C[C@]1(O)C[C@@H](c2nc(-c3ccc4ccc(-c5ccccc5)nc4c3)c3c(N)nccn32)C1 [Linsitinib] (partner 1 µM)
# Method in brief: as §1
# Daporinad + Dasatinib = compound: O=C(/C=C/c1cccnc1)NCCCCC1CCN(C(=O)c2ccccc2)CC1 [Daporinad] + Cc1nc(Nc2ncc(C(=O)Nc3c(C)cccc3Cl)s2)cc(N2CCN(CCO)CC2)n1 [Dasatinib] (partner 0.075 µM)
# Method in brief: as §1
Cell Line,relative viability (R406 + Bortezomib; first compound 0.08 µM),relative viability (R406 + Bortezomib; first compound 0.253 µM),relative viability (R406 + Bortezomib; first compound 0.8 µM),relative viability (R406 + Bortezomib; first compound 2.53 µM),relative viability (R406 + Bortezomib; first compound 8 µM),relative viability (Daporinad + Palbociclib; first compound 0.0005 µM),relative viability (Daporinad + Palbociclib; first compound 0.001581 µM),relative viability (Daporinad + Palbociclib; first compound 0.005 µM),relative viability (Daporinad + Palbociclib; first compound 0.01581 µM),relative viability (R406 + Linsitinib; first compound 0.08 µM),relative viability (R406 + Linsitinib; first compound 0.253 µM),relative viability (R406 + Linsitinib; first compound 0.8 µM),relative viability (R406 + Linsitinib; first compound 2.53 µM),relative viability (R406 + Linsitinib; first compound 8 µM),relative viability (Daporinad + Dasatinib; first compound 0.0005 µM),relative viability (Daporinad + Dasatinib; first compound 0.001581 µM),relative viability (Daporinad + Dasatinib; first compound 0.005 µM),relative viability (Daporinad + Dasatinib; first compound 0.01581 µM)
PC-3 [JPC-3],0.916,0.866,0.927,0.758,0.755,0.548,0.54,0.535,0.553,0.981,0.977,1.01,1,0.791,0.928,1.01,0.943,0.947
PC-14,0.874,0.957,0.909,0.604,0.704,0.564,0.522,0.601,0.339,0.941,1.05,1.01,0.852,0.8,0.276,0.315,0.293,0.363
RERF-LC-KJ,1.15,1.23,1.26,0.932,1.01,1.08,1.06,1.09,1.07,0.848,0.846,1.03,0.657,0.695,0.757,0.804,0.975,0.804
SK-LU-1,1.16,1.32,1.09,0.384,0.544,0.336,0.268,0.423,0.422,1.03,1.07,1.07,0.595,0.292,0.209,0.184,0.204,0.235
SW 1573,0.994,1.23,1.35,0.768,0.569,0.387,0.398,0.348,0.307,0.926,0.864,0.812,0.664,0.627,0.339,0.801,0.446,0.367
